According to paper PMC4546618, “Casitas B-Lineage Lymphoma RING Domain Inhibitors Protect Mice against High-Fat Diet-Induced Obesity and Insulin Resistance” (PLoS ONE, 2015):
Where a SMILES comes first, the peptide text is derived from it. [ ]: non-standard residue; d: D form. Pro(trans-4-F) = O=C(O)[C@@H]1C[C@@H](F)CN1; ΔPro = O=C(O)[C@@H]1C=CCN1; Pip = O=C(O)[C@@H]1CCCCN1; Thz = O=C(O)[C@@H]1CSCN1; Aze = O=C(O)[C@@H]1CCN1

Target: T1, Cbl (RING) protein (Homo sapiens, UniProt P22681)
T1 construct: including the linker and RING domain (codon 358–457); GST (Glutathione S-Transferase); made in house
T1 sequence (P22681 358-457): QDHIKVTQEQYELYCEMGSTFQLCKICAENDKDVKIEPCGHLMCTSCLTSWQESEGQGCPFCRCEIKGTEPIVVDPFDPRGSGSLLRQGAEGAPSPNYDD
Assay: Fluorescence polarization (FP) assay, competition with FITC-βA-PFKPP-NH2 probe
Assay type: binding
Settings: probe FITC-βA-PFKPP-NH2 100 nmol/L, Cbl (RING) protein 3 μmol/L, PBS pH 7.4
Protocol: Peptides and peptide mimetics were purchased from MitenChem (China) with a purity ≥ 98%. Concentrations values of reconstituted peptides were determined by amino acid analysis at the protein core facility (Chengdu Medical College). The recombinant Cbl protein was produced by the Chengdu Medical College Protein Core Facility and was described previously. The c-Cbl (RING) protein, including the linker and RING domain (codon 358–457), was tagged with Glutathione S-Transferase (GST) and purified with GSH-Sepharose (Shanghai Biopharma).
The FP assay was developed and validated previously. Briefly, fluorescein-labeled probe (FITC-βA-PFKPP-NH2, 100 nmol/L) and Cbl (RING) protein (3 μmol/L) were mixed and diluted to the final concentration using 0.01% Triton X-100 in PBS (pH = 7.4). Then, 19 μl of this master mix was loaded to each reaction well. The peptides or peptide mimetics were then loaded to the designated wells (1 μl, 10 μmol/L– 0.078 μmol/L, half-fold dilutions). The total fluorescence and polarization values were measured at an excitation wavelength of 485 nm and an emission wavelength of 538 nm using a ZS-2 plate reader. The data was fitted, and the ΔmP, Kd, and Ki values were estimated, using SigmaPlot 11.0.

| Ki | Compound |
| --- | --- |
| 196 ± 12.3 µM | CC(=O)CN(CCCC[C@H](NC(C)=O)C(=O)N1CCC[C@H]1C(=O)N[C@@H](C)C(=O)N[C@H](C(=O)N[C@@H](CCCCN(O)C(C)=O)C(N)=O)[C@@H](C)O)C(C)=O [Peptide 45, Ac-(w)PAT(v)-NH2] |
| 44.3 ± 13.2 µM | CC(=O)N[C@@H](CCCCN)C(=O)N1CC=C[C@H]1C(=O)N[C@@H](C)C(=O)N[C@H](C(=O)N[C@@H](CCCCN)C(N)=O)[C@@H](C)O [Peptide 47, Ac-K(p)ATK-NH2] (Ac-K[ΔPro]ATK-NH2) |
| 59.6 ± 13.5 µM | CC(=O)N[C@@H](CCCCN)C(=O)N1CC[C@H]1C(=O)N[C@@H](C)C(=O)N[C@H](C(=O)N[C@@H](CCCCN)C(N)=O)[C@@H](C)O [Peptide 48, Ac-K(q)ATK-NH2] (Ac-K[Aze]ATK-NH2) |
| 32.6 ± 10.9 µM | CC(=O)N[C@@H](CCCCN)C(=O)N1CCCC[C@H]1C(=O)N[C@@H](C)C(=O)N[C@H](C(=O)N[C@@H](CCCCN)C(N)=O)[C@@H](C)O [Peptide 50, Ac-K(s)ATK-NH2] (Ac-K[Pip]ATK-NH2) |
| 91.2 ± 6.6 µM | CC(=O)N[C@@H](CCCCN)C(=O)N1CSC[C@H]1C(=O)N[C@H](C(=O)N[C@H](C(=O)N[C@@H](CCCCN)C(N)=O)[C@@H](C)O)C(C)C [Peptide 53, Ac-K(r)VTK-NH2] (Ac-K[Thz]VTK-NH2) |
| 201 ± 14.4 µM | CC(=O)N[C@@H](CCCCN)C(=O)N1CSC[C@H]1C(=O)N[C@H](C(=O)N[C@H](C(=O)N[C@@H](CCCCN)C(N)=O)[C@@H](C)O)[C@@H](C)O [Peptide 54, Ac-K(r)TTK-NH2] (Ac-K[Thz]TTK-NH2) |
| 190 ± 19.2 µM | CC[C@H](C)[C@H](NC(=O)[C@@H]1CSCN1C(=O)[C@H](CCCCN)NC(C)=O)C(=O)N[C@H](C(=O)N[C@@H](CCCCN)C(N)=O)[C@@H](C)O [Peptide 55, Ac-K(r)ITK-NH2] (Ac-K[Thz]ITK-NH2) |
| 226 ± 22.5 µM | CC(=O)N[C@@H](CCCCN)C(=O)N1CSC[C@H]1C(=O)N[C@@H](CC(C)C)C(=O)N[C@H](C(=O)N[C@@H](CCCCN)C(N)=O)[C@@H](C)O [Peptide 56, Ac-K(r)LTK-NH2] (Ac-K[Thz]LTK-NH2) |
| 179 ± 10.2 µM | CC(=O)N[C@@H](CCCCN)C(=O)N1C[C@H](F)C[C@H]1C(=O)N[C@@H](C)C(=O)N[C@@H](C)C(=O)N[C@@H](CCCCN)C(N)=O [Peptide 57, Ac-K(t)AAK-NH2] (Ac-K[Pro(trans-4-F)]AAK-NH2) |
| 126 ± 3.2 µM | CC(=O)N[C@@H](CCCCN)C(=O)N1C[C@H](F)C[C@H]1C(=O)N[C@@H](C)C(=O)N[C@H](C(=O)N[C@@H](CCCCN)C(N)=O)C(C)C [Peptide 58, Ac-K(t)AVK-NH2] (Ac-K[Pro(trans-4-F)]AVK-NH2) |
| 145 ± 18.3 µM | CC[C@H](C)[C@H](NC(=O)[C@H](C)NC(=O)[C@@H]1C[C@@H](F)CN1C(=O)[C@H](CCCCN)NC(C)=O)C(=O)N[C@@H](CCCCN)C(N)=O [Peptide 59, Ac-K(t)AIK-NH2] (Ac-K[Pro(trans-4-F)]AIK-NH2) |
